Series [1] is described as follows: Intense light irradiation test (4500LX ± 500LX), stability study. It is filed as physicochemical. The following applies: for Appearance Day 0: Day 0, cell wraps; for Appearance Day 0 / Appearance Day 5 / Appearance Day 10: first line given; for Appearance Day 5: Day 5, cell wraps; for Appearance Day 10: Day 10, cell wraps.
Method: The test samples were open-stored in “adjustable light boxes” under the conditions of illumination of 4500LX±500LX for 10 days, and taken and detected on Day 5 and Day 10 with regards to dry items. • The characteristics, especially colour change was observed. • Melting points were measured by an automatic melting point apparatus. • By self-reflection, TLC is used to observe whether the spot numbers were increased after 5 days and 10 days.
Series [2] relates to ethanol-induced gastric ulcer. Put plainly: Anhydrous ethanol-induced gastric ulcer in mice. Set-up: key to Gastri ulcer score (X ± SD) / Ulcer score (X ± SD) / Gastric ulcer score (X ± SD): summed pathology score: congestion 1, hemorrhage/erosion 1, linear erosion 3. The settings on record: for Inhibition rate (%): inhibition rate of ulcer vs model group; for anti-gastric ulcer effect in words: ethanol-induced gastric ulcer in mice, compared to the model group. It is filed as in vivo, Kunming mice. The method, then: Kunming mice, half male and half female, weighing 18-22 g, provided by the West China Animal Center
(1) Azulene sodium sulphonate was added with 0.5% CMC to prepare a suspension with concentration of 0.15 mg/ml.
(2) 20 mg of Omeprazole was added with 0.5% CMC to prepare a suspension with concentration of 0.67 mg/ml.
Kunming mice were randomly grouped according the body weight (one model control group or negative control group, one Omeprazole control group or positive control group, one Azulene sodium sulphonate control group, twelve test drug groups), eight mice for each group, half male and half female.
Administration: Model control group was administrated intragastrically with 0.5% CMC solution at a dose of 0.4 ml/20 g; Omeprazole control group was administrated intragastrically with Omeprazole at a dose of 0.4 ml/20 g, Azulene sodium sulphonate control group and each test drug groups were administrated intragastrically with their respective drug at a dose of 0.4 ml/20 g. The mice in each group were administrated once a day for successive five days. 0.5 hour after final administration, the mice in each group were administrated intragastrically with 0.5 ml of anhydrous ethanol, one hour later the mice were executed and dissected, and their stomaches were taken, washed and scored according to the pathological degree. For local congestion and rubefaction, score was 1; for petechial hemorrhage or erosion, score was respectively 1, for each linear erosion, score was 3. Statistical analysis was performed. Ulcer scores were calculated, significant differences between the groups were compared and the inhibition rates of ulcer were calculated [Inhibition rate of ulcer=(ulcer score of model group−ulcer score of drug administration group)/ulcer score of model group].

Series [3] is described as follows: High humidity test (25° C., relative humidity 90% ± 5%), stability study.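 On all read-outs here: samples kept uncovered in sealed humidity desiccators, appearance judged mainly by colour change, melting point on an automatic apparatus, TLC checked for extra spots versus start.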 It is filed as physicochemical. The settings on record: RH 90% ± 5%; for Appearance Day 0: Day 0, cell wraps; for Appearance Day 0 / Appearance Day 5 / Appearance Day 10: first line given; for Appearance Day 5: Day 5, cell wraps; for Appearance Day 10: Day 10, cell wraps.
Method: The test samples were open-stored in closed constant humidity desiccators under the condition of 25° C. and relative humidity of 90%+5% for 10 days, and taken and detected on Day 5 and Day 10. Meanwhile, each sample was accurately weighed before and after test.
The characteristics, especially colour change was observed.
Melting points were measured by an automatic melting point apparatus.
By self-reflection, TLC is used to observe whether the spot numbers were increased after 5 days and 10 days.
The nature of series [4]: High-temperature test (60° C.), stability study.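 On all read-outs here: samples kept uncovered in dishes at 60 °C for up to 10 days and examined on Day 5 and Day 10.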 It is filed as physicochemical. The following applies: open-stored; for Appearance Day 5: Day 5, cell wraps; for Appearance Day 5 / Appearance Day 10: first line given; for Appearance Day 10: Day 10, cell wraps.
Method: The test samples were open-stored in culture dishes at 60° C. for 10 days, and taken and detected on Day 5 and Day 10. • The characteristics, especially colour change were observed. • Melting points were measured by automatic melting point apparatus. • By self-reflection, TLC is used to observe whether the spot numbers were increased after 5 days and 10 days.
Series [5] is described as follows: Stability studies (light, humidity, heat), overall comparison. The settings on record: summary of high-temperature, high humidity and intense light tests.
Series [6] is described as follows: Stability of the purified compound in the air. It is filed as physicochemical.
Setting [7] is: Table 5 data, relative increase.

“Also recorded” adds a separate entry of the source.

As a reminder, the melting point is the temperature of the solid-liquid transition. Regarding `Cc1cc(S(=O)(=O)NC2CCCCC2)c2c(C)ccc(C(C)C)cc1-2` [4i, N-cyclohexyl-3,8-dimethyl-5-isopropyl-1-azulene sulfonamide], the melting point was in the range of 108 to 109 °C. In series [1], the “Melting point Day 0” value was 107.5-108.5 °C, the “Spot numbers on TLC Day 0” value is reported as 1, the “Appearance Day 0” value is “purple” and the “Melting point Day 5” value was 107.5-108.5 °C. In series [1], the “Spot numbers on TLC Day 5” value came out at 1, the “Appearance Day 5” value is “purple” and the “Appearance Day 10” value was “purple”. In addition, in series [1] (Day 10), the “Spot numbers on TLC Day 10” value is 1. Further, the “Inhibition rate (%)” value in series [2] (Table 4) came out at 50.92%. Besides, in series [2] (Table 4, mice, intragastric once a day for five days, dose equimolar to azulene sulfonate sodium 3.0 mg/kg (Omeprazole 13.4 mg/kg), model group 13.00 ± 1.77), the “Gastri ulcer score (X ± SD)” value is reported as 6.38 ± 3.85. In addition, in series [2], the “anti-gastric ulcer effect in words” value was “significantly relieve the pathological degree”. In series [3], the “Melting point Day 0” value was 108.5-109.0 °C, the “Spot numbers on TLC Day 0” value came to 1, the “hygroscopic rate (%) Day 0” value was 1.89% and the “Appearance Day 0” value is listed as “purple”. In series [3], the “Melting point Day 5” value was 108.5-109.5 °C, the “Spot numbers on TLC Day 5” value is 1, the “hygroscopic rate (%) Day 5” value was 2.35% and the “Appearance Day 5” value is given as “purple”. Besides, in series [3], the “Melting point Day 10” value was 107.5-108.5 °C, the “Spot numbers on TLC Day 10” value came to 1 and the “Appearance Day 10” value is “purple”. For the same compound, in series [4], the “Melting point Day 0” value is 107.5-108.5 °C, the “Spot numbers on TLC Day 0” value came out at 1, the “Melting point Day 5” value was 107.0-108.5 °C and the “Spot numbers on TLC Day 5” value is reported as 1. In series [4], the “Appearance Day 5” value is given as “purple”, the “Melting point Day 10” value was 107.0-108.5 °C, the “Spot numbers on TLC Day 10” value is reported as 1 and the “Appearance Day 10” value was “purple”. Also, in series [5], the “light, humidity and heat stability in words” value was “better light, humidity and heat stability than azulene sulfonate sodium”.

`Cc1cc(S(=O)(=O)Nc2ccc(N)cc2)c2c(C)ccc(C(C)C)cc1-2` [4l, N-(4-aminophenyl)-3,8-dimethyl-5-isopropyl-1-azulene sulfonamide]: the melting point fell in the range of 88 to 90 °C. In series [1], the “Melting point Day 0” value was 87.5-89.0 °C, the “Spot numbers on TLC Day 0” value is reported as 1, the “Appearance Day 0” value is listed as “purple” and the “Melting point Day 5” value was 87.5-89.0 °C. In addition, in series [1], the “Spot numbers on TLC Day 5” value was determined as 1, the “Appearance Day 5” value is “purple” and the “Appearance Day 10” value is given as “purple”. Also, in series [1] (Day 10), the “Melting point Day 10” value is 87.5-89.5 °C and the “Spot numbers on TLC Day 10” value turned out to be 1. Besides, in series [2] (Table 5), the “Inhibition rate (%)” value was found to be 45.20%. Further, the “Ulcer score (X ± SD)” value in series [2] (Table 5, mice, intragastric once a day for five days, equimolar doses, model group 20.33 ± 12.23) is listed as 11.14 ± 6.41. Besides, in series [2] (setting [7]), the “increase of inhibition rate compared to Omeprazole” value amounted to 23% and the “increase of inhibition rate compared to azulene sulfonate sodium” value is given as 38%. Besides, the “anti-gastric ulcer effect in words” value in series [2] is “significantly relieve the pathological degree; also recorded: better therapeutic effect on gastric ulcer than azulene sulfonate sodium and omeprazole”. Moreover, in series [3], the “Melting point Day 0” value was 87.5-89.0 °C, the “Spot numbers on TLC Day 0” value amounted to 1, the “hygroscopic rate (%) Day 0” value came to 1.09% and the “Appearance Day 0” value is “purple”. In series [3], the “Melting point Day 5” value was 87.5-89.5 °C, the “Spot numbers on TLC Day 5” value worked out at 1, the “hygroscopic rate (%) Day 5” value was determined as 1.81% and the “Appearance Day 5” value is listed as “purple”. Further, in series [3], the “Melting point Day 10” value is 87.5-89.5 °C, the “Spot numbers on TLC Day 10” value is recorded as 1 and the “Appearance Day 10” value is “purple”. For the same compound, in series [4], the “Melting point Day 0” value is 87.5-89.0 °C, the “Spot numbers on TLC Day 0” value was 1, the “Melting point Day 5” value was 88.0-89.0 °C and the “Spot numbers on TLC Day 5” value stood at 1. Also, in series [4], the “Appearance Day 5” value is on record as “purple”, the “Melting point Day 10” value is 88.0-89.0 °C, the “Spot numbers on TLC Day 10” value was 1 and the “Appearance Day 10” value was “purple”. The “light, humidity and heat stability in words” value in series [5] was “better light, humidity and heat stability than azulene sulfonate sodium”.

Consider `Cc1cc(S(=O)(=O)NN)c2c(C)ccc(C(C)C)cc1-2` [4m, N-amino-3,8-dimethyl-5-isopropyl-1-azulene sulfonamide], for which, in series [6], the “stability in the air” value is “deteriorated soon in the air and had a very poor stability”.

Values taken from patent US9376382B2, “N-substituted isopropyldimethyl azulene sulfonamide derivatives, and preparation method and use thereof” (Sichuan Guokang Pharmaceutical Co., Ltd., priority 2011, dated 2016).
